From patent US20250170104A1, “INHIBITORS OF PSEUDOMONAS AERUGINOSA VIRULENCE FACTOR Lasß” (priority 2022, published 2025) come the findings set out here.

A short description of data set [1]: Kinetic turbidimetric solubility assay. The class given is physicochemical. The settings on record: PBS, aqueous buffer, kinetic from dmso stock. On the procedure: The desired compounds were sequentially diluted in DMSO in a 96-well plate. 1.5 μL of each well were transferred into another 96-well plate and mixed with 148.5 μL of PBS. Plates were shaken for 5 min at 600 rpm at room temperature, and the absorbance at 620 nm was measured. Absorbance values were normalized by blank subtraction and plotted using GraphPad Prism 8.4.2 (GraphPad Software, San Diego, CA, USA). Solubility (S) was determined based on the First X value of AUC function using a threshold of 0.005.

A short description of a further data set: in vitro. The settings on record: mouse, s9. The class given is in vitro ADME. On the procedure:
For the evaluation of combined phase I and phase II metabolic stability, the compound (1 μM) was incubated with 1 mg/mL pooled liver S9 fraction (Xenotech), 2 mM NADPH, 1 mM UDPGA, 10 mM MgCl2, 5 mM GSH and 0.1 mM PAPS at 37° C. for 0, 5, 15, 30 and 60 min. The metabolic stability of Testosterone (1 μM), verapamil (1 μM) and ketoconazol (1 μM) were determined in parallel to confirm the enzymatic activity of the S9 fraction. The incubation was stopped by precipitation of S9 enzymes with 2 volumes of cold acetonitrile containing internal standard (150 nM Diphenhydramine). Samples were stored on ice for 10 min and precipitated protein was removed by centrifugation (15 min, 4° C., 4,000 rpm). The remaining test compound at different time points was analyzed by LC-MS/MS (TSQ Quantum Access MAX, Thermo Fisher, Dreieich, Germany) and used to determine half-life (t½).

A further data set concerns the target MMP1 (Homo sapiens (Human), UniProt P03956). Kind of data set: Selectivity assay: inhibition of MMPs. The class given is biochemical. The method, then:
(§1) MMPs-1, -2, -3, -7, -8 and -14 along with the SensoLyte 520 Generic MMP Activity Kit*Fluorimetric* were purchased from AnaSpec (Fremont, CA, USA). The assay was performed as described previously (Schönauer E, Kany A M, Haupenthal J, Hüsecken K, Hoppe I J, Voos K, et al. Discovery of a Potent Inhibitor Class with High Selectivity toward Clostridial Collagenases. J Am Chem Soc. 2017 Sep. 13; 139(36):12696-703) using batimastat as a positive control according to the guidelines of the manufacturer.

The next data set has as its target MMP2 (Homo sapiens (Human), UniProt P08253). The experiment in a line: Selectivity assay: inhibition of MMPs. It is filed as biochemical. The method, then: as §1
The target in the next data set is MMP3 (Homo sapiens (Human), UniProt P08254). Kind of data set: Selectivity assay: inhibition of MMPs. The class given is biochemical. The method, then:
as §1

A further data set is described as follows: Cytotoxicity assay. The class given is cell-based. To be noted: human. The method, then:
HepG2, HEK293 or A549 cells (2×10^5 cells per well) were seeded in 24-well, flat-bottomed plates. Culturing of cells, incubations, and OD measurements were performed as described previously (Int. J. Cancer 2007, 121, 206-210). Twenty-four hours after seeding the cells, the incubation was started by the addition of test compound in a final DMSO concentration of 1%. The living cell mass was determined after 48 h. At least two independent measurements were performed for each compound.

The next data set deals with P. aeruginosa PA-14. The experiment in a line: MIC determination assay / antibacterial activity. The settings on record: Pseudomonas aeruginosa, PA14. The class given is cell-based. The method, then: Assays regarding the determination of the minimum inhibitory concentration (MIC) were performed as described previously (Elgaher W A M, Fruth M, Groh M, Haupenthal J, Hartmann R W. Expanding the scaffold for bacterial RNA polymerase inhibitors: design, synthesis and structure-activity relationships of ureido-heterocyclic-carboxylic acids. RSC Adv. 2013 Dec. 3; 4(5):2177-94). The experiments were based on the P. aeruginosa strain PA14. For the case that no MIC value could be determined due to activity reasons, percentage (%) inhibition at 100 μM (or lower, depending on the solubility of the compounds) was calculated. The OD600 was measured 0 and 16 h after inhibitor addition in a CLARIOstar Platereader (BMG Labtech, Ortenberg, Germany).

Data set [2] has as its system A549 cells challenged with P. aeruginosa PAO1 culture supernatant. Kind of data set: A549 cell-based assay, LasB-related cytotoxicity (MTT). Also noted: species or system human. The settings on record: 10% (v/v) PAO1 csn. On the procedure: The human lung adenocarcinoma cell line (A549) was cultured in Dulbecco's Modified Eagle Medium (DMEM), containing 10% Fetal Bovine Serum (FBS) and 1% penicillin-streptomycin mixture. Cells were maintained according to standard cell culture procedures.
To conduct the assay, 2.5-3.5*10^3 cells/well were seeded into a flat bottom 96-well plate (Corning™ Costar™) and incubated at 37° C.+5% CO2 for 24 hours. On the following day, several concentrations of the compound 169 were tested against 10% (v/v) Pseudomonas aeruginosa PAO1 (DSM 22644, ATCC 15692) culture supernatant diluted in DMEM starting from 1.25 μM. The compound was initially dissolved in 99.9% Dimethyl sulfoxide (DMSO) and a final assay concentration of 0.5% (v/v) was applied to minimize the proteolytic effect of DMSO on the bacterial culture supernatant. In addition, cells were challenged with 10% (v/v) of AlasB PAO1 to confirm the toxic effect derived from LasB, and DMEM was included as a control without any treatment. Plates were incubated at 37° C.+5% CO2 for 24 hours prior to the MTT assay.
The graph represents three independent experiments ±SD. One-way ANOVA statistical analysis was performed following Dunnett's multiple comparisons test, comparing the mean value of each concentration to the mean value of PAO1 without any treatment with compounds (**** p≤0.0001, ** p≤0.01, * p≤0.05).

pIC50: −log10 of the molar value.

Sequence of MMP3 (P08254 100-477): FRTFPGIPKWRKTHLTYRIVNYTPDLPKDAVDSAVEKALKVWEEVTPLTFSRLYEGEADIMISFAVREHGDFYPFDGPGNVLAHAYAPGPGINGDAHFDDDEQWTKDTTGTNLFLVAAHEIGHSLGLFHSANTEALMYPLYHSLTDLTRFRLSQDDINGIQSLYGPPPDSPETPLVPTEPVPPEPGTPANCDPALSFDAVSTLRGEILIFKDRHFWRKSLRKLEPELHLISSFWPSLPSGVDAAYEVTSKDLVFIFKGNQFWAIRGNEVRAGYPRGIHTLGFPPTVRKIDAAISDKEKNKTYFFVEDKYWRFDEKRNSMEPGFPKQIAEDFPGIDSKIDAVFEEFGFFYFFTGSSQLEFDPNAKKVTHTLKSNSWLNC
Sequence of MMP2 (P08253 110-660): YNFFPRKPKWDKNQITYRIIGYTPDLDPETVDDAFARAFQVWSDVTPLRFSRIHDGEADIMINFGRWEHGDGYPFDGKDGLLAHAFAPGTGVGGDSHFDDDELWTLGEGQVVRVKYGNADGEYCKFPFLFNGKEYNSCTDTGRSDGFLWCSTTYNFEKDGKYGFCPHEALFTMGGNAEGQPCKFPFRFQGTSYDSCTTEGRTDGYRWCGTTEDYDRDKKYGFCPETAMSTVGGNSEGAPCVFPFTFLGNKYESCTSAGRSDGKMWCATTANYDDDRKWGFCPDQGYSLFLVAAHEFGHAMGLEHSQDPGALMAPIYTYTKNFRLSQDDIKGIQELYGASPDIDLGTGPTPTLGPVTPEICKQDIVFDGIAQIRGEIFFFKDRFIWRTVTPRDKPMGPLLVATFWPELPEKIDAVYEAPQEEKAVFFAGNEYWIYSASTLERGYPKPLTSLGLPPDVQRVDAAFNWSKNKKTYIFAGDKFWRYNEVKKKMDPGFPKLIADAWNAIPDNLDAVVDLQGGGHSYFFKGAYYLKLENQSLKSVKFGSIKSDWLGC
Sequence of MMP1 (P03956 100-469): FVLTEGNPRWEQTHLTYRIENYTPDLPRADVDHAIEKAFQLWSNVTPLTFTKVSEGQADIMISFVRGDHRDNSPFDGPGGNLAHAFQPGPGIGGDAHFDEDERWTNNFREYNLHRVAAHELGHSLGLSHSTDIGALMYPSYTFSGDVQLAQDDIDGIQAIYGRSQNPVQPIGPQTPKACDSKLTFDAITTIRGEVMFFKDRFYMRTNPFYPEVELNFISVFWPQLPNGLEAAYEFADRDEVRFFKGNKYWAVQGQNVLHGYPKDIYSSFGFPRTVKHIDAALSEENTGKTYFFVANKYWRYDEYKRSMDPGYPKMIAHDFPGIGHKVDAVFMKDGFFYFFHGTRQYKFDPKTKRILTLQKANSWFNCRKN

By solubility is commonly meant the dissolved amount per volume that the medium holds. Read a high solubility as a readily soluble substance. As usually defined, the half-life is the time needed for the level to fall by half in the phase considered. The pIC50 is the negative decadic logarithm of the IC50, by convention in mol/L. High values mean a low IC50, low ones a high IC50. One may read the IC50 as the concentration that inhibits the measured activity by half. Read a high IC50 as weaker potency in that assay. For the compound `CC(C)CC(C(=O)NO)C(=O)Nc1ccc(Cn2cc(CNS(=O)(=O)CC(C)C)nn2)cc1` (centres unmarked) [Compound 169, 2-(Hydroxycarbamoyl)-N-[4-[[4-[(isobutylsulfonylamino)methyl]triazol-1-yl]methyl]phenyl]-4-methyl-pentanamide], in data set [1], the solubility at 5 min is more than 200 µM. The half-life at 1 μM in “in vitro” was more than 2 h. In addition, the pIC50 against MMP1, against MMP2, against MMP3 and in the data set on P. aeruginosa PA-14 was less than 4.00 throughout. For the same compound, the IC50 at 48 h in “Cytotoxicity assay” (A549 cells), in the data set “Cytotoxicity assay” (HEK293 cells) and in “Cytotoxicity assay” (HepG2 cells) was more than 100 µM each time. Moreover, the “Reduction of LasB-related cytotoxicity in A549 cells” value in data set [2] (24 h, MTT) is “excellent potency”. Further, the “Dose-response of LasB inhibition in A549 cells” value in data set [2] (from 1.25 μM) is listed as “Dose-dependent inhibition of LasB in a low micromolar to nanomolar range”.
